Assay results from patent US20210198277A1, “AMINE-SUBSTITUTED ARYL OR HETEROARYL COMPOUNDS” (Epizyme, Inc., priority 2016, published 2021).

Experiments:
human EHMT2 913-1193 = biological target: T1, human EHMT2 913-1193 (Homo sapiens, UniProt Q96KQ7); assay: EHMT2 enzyme assay on histone peptide substrate (EHMT2 PEP); format: biochemical; details: recombinant human EHMT2 913-1193, histone H3 1-15 peptide, balanced conditions; read-out: EHMT2 PEP (IC50 μM)
T1 construct: recombinant purified human EHMT2 913-1193, Viva; purchased Viva
T1 sequence (Q96KQ7 913-1193): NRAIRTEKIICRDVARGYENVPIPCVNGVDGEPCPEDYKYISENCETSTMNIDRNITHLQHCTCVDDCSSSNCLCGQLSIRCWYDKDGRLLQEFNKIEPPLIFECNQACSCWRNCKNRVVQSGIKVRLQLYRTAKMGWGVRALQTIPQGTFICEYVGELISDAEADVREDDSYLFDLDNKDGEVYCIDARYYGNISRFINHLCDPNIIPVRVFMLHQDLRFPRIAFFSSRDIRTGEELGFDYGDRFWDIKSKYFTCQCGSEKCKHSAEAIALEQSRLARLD
In short: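 Radiometric methyltransferase assay: 0.031 nM EHMT2 913-1193 preincubated 30 min with compound (10-point 3-fold series, top final 50 μM, 2% DMSO) in 20 mM Bicine pH 7.5, 1 mM TCEP. Biotinylated histone peptide methylated with ^3H-SAM for 60 min at room temperature, quenched with unlabeled SAM, captured on streptavidin Flashplates and counted.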

EHMT1 = biological target: T2, EHMT1 (Homo sapiens, UniProt Q9H9B1); assay: EHMT1 enzyme assay on peptide substrate (EHMT1 PEP); format: biochemical; details: read-out: EHMT1 PEP (IC50 μM)
T2 sequence (Q9H9B1 1-1298): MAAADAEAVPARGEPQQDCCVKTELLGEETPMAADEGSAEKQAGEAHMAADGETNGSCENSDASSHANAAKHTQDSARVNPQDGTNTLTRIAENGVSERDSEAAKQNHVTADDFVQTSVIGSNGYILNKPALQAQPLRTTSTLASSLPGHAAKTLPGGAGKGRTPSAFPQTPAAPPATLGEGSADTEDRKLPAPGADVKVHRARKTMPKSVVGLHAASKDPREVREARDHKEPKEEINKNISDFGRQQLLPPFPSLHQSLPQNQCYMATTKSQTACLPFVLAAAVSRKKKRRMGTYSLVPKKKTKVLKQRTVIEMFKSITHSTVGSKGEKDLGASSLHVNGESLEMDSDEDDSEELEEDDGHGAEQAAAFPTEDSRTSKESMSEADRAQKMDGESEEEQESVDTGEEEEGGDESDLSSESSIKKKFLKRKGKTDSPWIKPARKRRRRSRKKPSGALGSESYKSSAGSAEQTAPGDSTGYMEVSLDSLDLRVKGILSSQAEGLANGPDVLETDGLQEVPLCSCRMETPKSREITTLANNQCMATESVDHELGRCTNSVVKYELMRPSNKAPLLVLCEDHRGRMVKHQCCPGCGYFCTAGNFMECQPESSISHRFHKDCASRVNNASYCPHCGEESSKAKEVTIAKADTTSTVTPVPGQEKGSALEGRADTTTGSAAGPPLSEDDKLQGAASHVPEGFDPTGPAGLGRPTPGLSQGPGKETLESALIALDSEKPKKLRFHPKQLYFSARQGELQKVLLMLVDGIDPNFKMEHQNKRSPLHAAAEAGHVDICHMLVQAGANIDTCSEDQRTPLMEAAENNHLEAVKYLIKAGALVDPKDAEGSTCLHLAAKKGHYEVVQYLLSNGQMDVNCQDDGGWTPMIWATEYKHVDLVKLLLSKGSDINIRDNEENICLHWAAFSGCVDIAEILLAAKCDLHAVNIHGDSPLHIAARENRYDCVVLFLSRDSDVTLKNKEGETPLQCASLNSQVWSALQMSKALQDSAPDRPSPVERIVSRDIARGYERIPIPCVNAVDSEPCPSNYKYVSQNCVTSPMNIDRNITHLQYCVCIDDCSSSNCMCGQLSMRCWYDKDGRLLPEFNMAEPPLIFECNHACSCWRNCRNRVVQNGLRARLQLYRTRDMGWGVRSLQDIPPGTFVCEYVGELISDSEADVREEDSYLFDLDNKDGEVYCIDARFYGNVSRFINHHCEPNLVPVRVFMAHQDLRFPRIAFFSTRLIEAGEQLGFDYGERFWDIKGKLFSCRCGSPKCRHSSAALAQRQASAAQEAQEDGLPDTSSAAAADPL

SMILES | IC50 (human EHMT2 913-1193) | IC50 (EHMT1)
COc1ncc(Nc2nc(C)cc(NCC3CCOCC3)n2)cc1OCCCN1CCCC1 [Compound 591] | < 0.1 µM | < 0.1 µM
COc1ncc(Nc2nc(C)cc(NCC3CCOCC3)n2)cc1OC[C@@H]1CCN(C(C)C)C1 [Compound 592] | 0.1 to 1 µM | 0.1 to 1 µM
COc1ncc(Nc2nc(C)cc(NC(C)C)n2)cc1OCCCN1CCCC1 [Compound 593] | 0.1 to 1 µM | 0.1 to 1 µM
COc1ncc(Nc2nc(C)cc(NCC3CCOCC3)n2)cc1OC[C@@H]1CCN(C2CCC2)C1 [Compound 594] | 0.1 to 1 µM | < 0.1 µM
COc1ncc(Nc2nc(C)cc(NCC3CCOCC3)n2)cc1OC[C@@H]1CCN(C2CCC2)C1 [Compound 595] | 0.1 to 1 µM | 0.1 to 1 µM
COc1cnc(Nc2cc(C)nc3[nH]ncc23)cc1OCCCN1CCCC1 [Compound 596] | 1 to 10 µM | 1 to 10 µM
C/C=C/C(=O)Nc1cc(OCCCN2CCCC2)c(OC)cn1 [Compound 597] | > 10 µM | > 10 µM
C/C=C/C(=O)Nc1ccc(OC)c(OCCCN2CCCC2)c1 [Compound 598] | > 10 µM | > 10 µM
CCN1CC[C@@H](COc2cc(Nc3nc(C)cc(NC)n3)cnc2OC)C1 [Compound 599] | 0.1 to 1 µM | < 0.1 µM
CNc1cc(C)nc(Nc2ccc(OC)c(OC[C@@H]3CCNC3)c2)n1 [Compound 600] | < 0.1 µM | < 0.1 µM
CCc1cc(NC)nc(Nc2cnc(OC)c(OC[C@@H]3CCN(CC)C3)c2)n1 [Compound 601] | 0.1 to 1 µM | < 0.1 µM
CCN1CC[C@@H](COc2cc(Nc3nc(C)cc(NC(C)C)n3)ccc2OC)C1 [Compound 602] | 0.1 to 1 µM | 0.1 to 1 µM
COc1ccc(Nc2nc(C)cc(NC(C)C)n2)cc1OCCCN1CCCC1 [Compound 603] | < 0.1 µM | < 0.1 µM
